{
  "source": "patent US9981918B2",
  "about": "“Kynurenine-3-monooxygenase inhibitors, pharmaceutical compositions, and methods of use thereof” (CHDI Foundation, Inc., priority 2011, dated 2018)",
  "tested_on": "KMO",
  "assay": "KMO inhibition: L-Kynurenine hydroxylation to 3-Hydroxy-Kynurenine monitored by LC/MS",
  "format": "biochemical",
  "conditions": "compound at 10 uM; footnote: some portion of activity of amides may be due to contribution of acid precursor",
  "procedure": "A generalized procedure for monitoring L-Kynurenine (KYN) hydroxylation to form product 3-Hydroxy-Kynurenine (30H-KYN) by LC/MS is described below. Product is quantified by multiple reaction monitoring using MS.\nA method of monitoring L-Kynurenine (KYN) hydroxylation to form product 3-Hydroxy-Kynurenine (30H-KYN) by LC/MS is described below. Product is quantified by multiple reaction monitoring.\n• Compound: Stock concentrations: 10 mM in 100% DMSO • Enzyme: KMO enzyme prepared at Evotec via mitochondria isolation from CHO-GST HIS KMO cells • Substrate: L-Kynurenine (Sigma: Cat# K3750) • [stock concentration: 10 mM in 100 mM potassium phosphate buffer, pH 7.4]\nA method of monitoring L-Kynurenine (KYN) hydroxylation to form 3-Hydroxy-Kynurenine (30H-KYN) by LC/MS is described. Product is quantified by multiple reaction monitoring (MRM method).",
  "data": [
    {"smiles": "O=C(O)c1cc(-c2ccc(OCCN3CCCCC3)c(Cl)c2)ncn1", "note": "[6-[3-Chloro-4-(2-piperidin-1-yl-ethoxy)-phenyl]-pyrimidine-4-carboxylic acid]", "values": [
      {"measurement": "% Inhibition at 10 uM*", "result": 90, "unit": "%"}
    ]},
    {"smiles": "O=C(O)c1cc(-c2cc(Cl)c3occc3c2)ncn1", "note": "[6-(7-Chloro-benzofuran-5-yl)-pyrimidine-4-carboxylic acid]", "values": [
      {"measurement": "% Inhibition at 10 uM*", "result": 100, "unit": "%"}
    ]},
    {"smiles": "O=C(O)c1cc(-c2cc(Cl)c3c(c2)CCCO3)ncn1", "note": "[6-(8-Chloro-chroman-6-yl)-pyrimidine-4-carboxylic acid]", "values": [
      {"measurement": "% Inhibition at 10 uM*", "result": 100, "unit": "%"}
    ]},
    {"smiles": "O=C(O)c1ncnc(-c2ccc(OC3CC3)c(Cl)c2)c1CO", "note": "[6-(3-chloro-4-cyclopropoxyphenyl)-5-(hydroxymethyl)pyrimidine-4-carboxylic acid]", "values": [
      {"measurement": "% Inhibition at 10 uM*", "result": 100, "unit": "%"}
    ]},
    {"smiles": "COC(C)c1ccc(-c2cc(C(=O)O)ncn2)cc1Cl", "note": "(stereo not shown) [6-[3-chloro-4-(1-methoxyethyl)phenyl]pyrimidine-4-carboxylic acid]", "values": [
      {"measurement": "% Inhibition at 10 uM*", "result": 101, "unit": "%"}
    ]},
    {"smiles": "C[S+]([O-])c1ccc(-c2cc(C(=O)O)ncn2)cc1Cl", "note": "(stereo not shown) [6-[3-chloro-4-(methylsulfinyl)phenyl]pyrimidine-4-carboxylic acid]", "values": [
      {"measurement": "% Inhibition at 10 uM*", "result": 100, "unit": "%"}
    ]},
    {"smiles": "O=C(O)c1cc(-c2ccc3ncccc3c2)ncn1", "note": "[6-Quinolin-6-yl-pyrimidine-4-carboxylic acid]", "values": [
      {"measurement": "% Inhibition at 10 uM*", "result": 100, "unit": "%"}
    ]},
    {"smiles": "O=C(O)c1cc(-c2ccc(C(O)C3CC3)c(Cl)c2)ncn1", "note": "(stereo not shown) [6-{3-chloro-4-[cyclopropyl(hydroxy)methyl]phenyl}pyrimidine-4-carboxylic acid]", "values": [
      {"measurement": "% Inhibition at 10 uM*", "result": 90, "unit": "%"}
    ]},
    {"smiles": "Cc1nc2cc(-c3cc(C(=O)O)ncn3)cc(Cl)c2o1", "note": "[6-(7-chloro-2-methyl-1,3-benzoxazol-5-yl)pyrimidine-4-carboxylic acid]", "values": [
      {"measurement": "% Inhibition at 10 uM*", "result": 102, "unit": "%"}
    ]},
    {"smiles": "O=C(O)c1cc(-c2ccc(OC3CC3)c(Cl)c2)ncn1", "note": "[6-(3-Chloro-4-cyclopropoxy-phenyl)-pyrimidine-4-carboxylic acid]", "values": [
      {"measurement": "% Inhibition at 10 uM*", "result": 100, "unit": "%"}
    ]},
    {"smiles": "CC(C)c1ccc(-c2cc(C(=O)O)ncn2)cc1F", "note": "[6-(3-Fluoro-4-isopropyl-phenyl)-pyrimidine-4-carboxylic acid]", "values": [
      {"measurement": "% Inhibition at 10 uM*", "result": 85, "unit": "%"}
    ]},
    {"smiles": "O=C(O)c1cc(-c2ccc(OC3CC3)c(Cl)c2)ccn1", "note": "[4-(3-Chloro-4-cyclopropoxy-phenyl)-pyridine-2-carboxylic acid]", "values": [
      {"measurement": "% Inhibition at 10 uM*", "result": 100, "unit": "%"}
    ]},
    {"smiles": "O=C(O)c1cc(-c2ccc(NC3CC3)c(Cl)c2)ncn1", "note": "[6-[3-chloro-4-(cyclopropylamino)phenyl]pyrimidine-4-carboxylic acid]", "values": [
      {"measurement": "% Inhibition at 10 uM*", "result": 101, "unit": "%"}
    ]},
    {"smiles": "O=C(O)c1cc(-c2cc(Cl)c3nccnc3c2)ncn1", "note": "[6-(8-chloroquinoxalin-6-yl)pyrimidine-4-carboxylic acid]", "values": [
      {"measurement": "% Inhibition at 10 uM*", "result": 102, "unit": "%"}
    ]},
    {"smiles": "Cc1c(C(=O)O)ncnc1-c1ccc(OC2CC2)c(Cl)c1", "note": "[6-(3-chloro-4-cyclopropoxyphenyl)-5-methylpyrimidine-4-carboxylate]", "values": [
      {"measurement": "% Inhibition at 10 uM*", "result": 100, "unit": "%"}
    ]},
    {"smiles": "O=C([O-])c1cc(-c2cc(Cl)c3ncccc3c2)ncn1.[Na+]", "note": "[6-(8-chloroquinolin-6-yl)pyrimidine-4-carboxylate]", "values": [
      {"measurement": "% Inhibition at 10 uM*", "result": 100, "unit": "%"}
    ]},
    {"smiles": "CCC(C)Oc1ccc(-c2ccnc(C(=O)O)c2)cc1Cl", "note": "(stereo in doubt) [listing 1 of 2 here]", "values": [
      {"measurement": "% Inhibition at 10 uM*", "result": 50, "unit": "%"}
    ]},
    {"smiles": "O=C(O)c1cc(-c2cc(Cl)c3c(c2)CCO3)ncn1", "note": "[6-(7-chloro-2,3-dihydro-1-benzofuran-5-yl)pyrimidine-4-carboxylic acid]", "values": [
      {"measurement": "% Inhibition at 10 uM*", "result": 102, "unit": "%"}
    ]},
    {"smiles": "O=C(O)c1cc(-c2cc(Cl)c3oc(C4CC4)nc3c2)ncn1", "note": "[6-(7-chloro-2-cyclopropyl-1,3-benzoxazol-5-yl)pyrimidine-4-carboxylic acid]", "values": [
      {"measurement": "% Inhibition at 10 uM*", "result": 100, "unit": "%"}
    ]},
    {"smiles": "O=C(O)c1cc(-c2ccc(C(=O)C3CC3)c(Cl)c2)ncn1", "note": "[6-(3-chloro-4-cyclopropanecarbonylphenyl)pyrimidine-4-carboxylic acid]", "values": [
      {"measurement": "% Inhibition at 10 uM*", "result": 101, "unit": "%"}
    ]},
    {"smiles": "Nc1cc(-c2cc(C(=O)O)ncn2)ccc1Cl", "note": "[6-(3-Amino-4-chloro-phenyl)-pyrimidine-4-carboxylic acid]", "values": [
      {"measurement": "% Inhibition at 10 uM*", "result": 101.01, "unit": "%"}
    ]},
    {"smiles": "CN(C)Cc1ccc(-c2cc(C(=O)O)ncn2)cc1Cl", "note": "[6-{3-chloro-4-[(dimethylamino)methyl]phenyl}pyrimidine-4-carboxylic acid]", "values": [
      {"measurement": "% Inhibition at 10 uM*", "result": 65, "unit": "%"}
    ]},
    {"smiles": "CN1CCCc2cc(-c3cc(C(=O)O)ncn3)cc(Cl)c21", "note": "[6-(8-chloro-1-methyl-1,2,3,4-tetrahydroquinolin-6-yl)pyrimidine-4-carboxylic acid]", "values": [
      {"measurement": "% Inhibition at 10 uM*", "result": 100, "unit": "%"}
    ]},
    {"smiles": "O=C1OCc2c1ncnc2-c1ccc(OC2CC2)c(Cl)c1", "note": "[4-(3-chloro-4-cyclopropoxyphenyl)-5H,7H-furo[3,4-d]pyrimidin-7-one]", "values": [
      {"measurement": "% Inhibition at 10 uM*", "result": 100, "unit": "%"}
    ]},
    {"smiles": "O=C1OCCc2c1ncnc2-c1ccc(OC2CC2)c(Cl)c1", "note": "[4-(3-chloro-4-cyclopropoxyphenyl)-5H,6H,8H-pyrano[3,4-d]pyrimidin-8-one]", "values": [
      {"measurement": "% Inhibition at 10 uM*", "result": 100, "unit": "%"}
    ]},
    {"smiles": "CCC(C)Oc1ccc(-c2ccnc(C(=O)O)c2)cc1Cl", "note": "(stereo in doubt) [listing 2 of 2 here]", "values": [
      {"measurement": "% Inhibition at 10 uM*", "result": 82, "unit": "%"}
    ]},
    {"smiles": "CS(=O)(=O)c1ccc(-c2cc(C(=O)O)ncn2)cc1Cl", "note": "[6-[3-chloro-4-(methylsulfonyl)phenyl]pyrimidine-4-carboxylic acid]", "values": [
      {"measurement": "% Inhibition at 10 uM*", "result": 100, "unit": "%"}
    ]},
    {"smiles": "CC(Oc1ccc(-c2cc(C(=O)O)ncn2)cc1Cl)C(F)(F)F", "note": "(stereo not shown) [6-[3-Chloro-4-(2,2,2-trifluoro-1-methyl-ethoxy)-phenyl]-pyrimidine-4-carboxylic acid]", "values": [
      {"measurement": "% Inhibition at 10 uM*", "result": 94, "unit": "%"}
    ]},
    {"smiles": "CN(c1ccc(-c2cc(C(=O)O)ncn2)cc1Cl)C1CC1", "note": "[6-{3-chloro-4-[cyclopropyl(methyl)amino]phenyl}pyrimidine-4-carboxylic acid]", "values": [
      {"measurement": "% Inhibition at 10 uM*", "result": 96, "unit": "%"}
    ]},
    {"smiles": "O=S(=O)(Nc1cc(-c2ccc(OC3CC3)c(Cl)c2)ncn1)c1ccc(OC(F)(F)F)cc1", "note": "[N-[6-(3-chloro-4-cyclopropoxyphenyl)pyrimidin-4-yl]-4-(trifluoromethoxy)benzene-1-sulfonamide]", "values": [
      {"measurement": "% Inhibition at 10 uM*", "result": 88, "unit": "%"}
    ]},
    {"smiles": "O=C(OC[C@H]1OC(O)[C@H](O)[C@@H](O)[C@@H]1O)c1cc(-c2ccc(OC3CC3)c(Cl)c2)ncn1", "note": "(stereo partly drawn) [[(2R,3S,4S,5R)-3,4,5,6-tetrahydroxyoxan-2-yl]methyl 6-(3-chloro-4-cyclopropoxyphenyl)pyrimidine-4-carboxylate]", "values": [
      {"measurement": "% Inhibition at 10 uM*", "result": 102, "unit": "%"}
    ]},
    {"smiles": "Cc1nc(C(=O)O)cc(-c2ccc(C)c(F)c2)n1", "note": "[6-(3-Fluoro-4-methyl-phenyl)-2-methyl-pyrimidine-4-carboxylic acid]", "values": [
      {"measurement": "% Inhibition at 10 uM*", "result": 96, "unit": "%"}
    ]},
    {"smiles": "COCc1ccc(-c2cc(C(=O)O)ncn2)cc1Cl", "note": "[6-[3-chloro-4-(methoxymethyl)phenyl]pyrimidine-4-carboxylic acid]", "values": [
      {"measurement": "% Inhibition at 10 uM*", "result": 105, "unit": "%"}
    ]},
    {"smiles": "O=C(O)c1cc(-c2cc(Cl)c3c(c2)CCCN3)ncn1", "note": "[6-(8-chloro-1,2,3,4-tetrahydroquinolin-6-yl)pyrimidine-4-carboxylate]", "values": [
      {"measurement": "% Inhibition at 10 uM*", "result": 100, "unit": "%"}
    ]},
    {"smiles": "O=C(O)c1cc(-c2ccc3c(c2)OCO3)ncn1", "note": "[6-(2H-1,3-benzodioxol-5-yl)pyrimidine-4-carboxylic acid]", "values": [
      {"measurement": "% Inhibition at 10 uM*", "result": 101, "unit": "%"}
    ]},
    {"smiles": "Cc1nc2c(Cl)cc(-c3cc(C(=O)O)ncn3)cc2o1", "note": "[6-(4-chloro-2-methyl-1,3-benzoxazol-6-yl)pyrimidine-4-carboxylic acid]", "values": [
      {"measurement": "% Inhibition at 10 uM*", "result": 102, "unit": "%"}
    ]},
    {"smiles": "CSc1ccc(-c2cc(C(=O)O)ncn2)cc1Cl", "note": "[6-[3-chloro-4-(methylsulfanyl)phenyl]pyrimidine-4-carboxylic acid]", "values": [
      {"measurement": "% Inhibition at 10 uM*", "result": 103, "unit": "%"}
    ]}
  ]
}
